Test results taken from PMC4995097, “Talin-KANK1 interaction controls the recruitment of cortical microtubule stabilizing complexes to focal adhesions” (eLife, 2016).

Experiments:
[1] = test system: focal adhesions in HeLa cells; assay: TIRFM localization of GFP-tagged KANK1 constructs relative to focal adhesions; assay type: cell-based, human; conditions: live HeLa cells with mCherry- or TagRFP-paxillin
Description: HeLa Kyoto cell line was described previously ([Lansbergen et al., 2006]; [Mimori-Kiyosue et al., 2005]). HEK293T cells were purchased from ATCC; culture and transfection of DNA and siRNA into these cell lines was performed as previously described ([van der Vaart et al., 2013]). HaCaT cells were purchased at Cell Line Service (Eppelheim, Germany) and cultured according to manufacturer’s instructions. The cell lines were routinely checked for mycoplasma contamination using LT07-518 Mycoalert assay (Lonza, Switzerland).The identity of the cell lines was monitored by immunofluorescence-staining-based analysis with multiple markers. Blebbistatin was purchased from Enzo Life Sciences and used at 50 μM. Serum starvation in HeLa cells was done for 48 hr and focal adhesion assembly was stimulated by incubation with fetal calf serum-containing medium with or without blebbistatin for 2 hr. ROCK1 inhibitor Y-27632 was purchased at Sigma-Aldrich and used at 1 or 10 μM. Double stable HeLa cell line expressing GFP-KANK1 and TagRFP-paxillin was made by viral infection. We used a pLVIN-TagRFP-paxillin-based lentivirus and a pQC-GFP-KANK1-based retrovirus packaged in HEK293T cells using respectively Lenti-X HTX packaging and pCL-Ampho vectors. Antibiotic selection was applied to cells 48 hr after infection using 500 μg/ml G418 (Geneticin, Life Technologies) and 1 μg/ml puromycin (InvivoGen). […]

GFP-talin1 = assay: Streptavidin pull down of BioGFP-KANK1 constructs with GFP-talin1, Western blot; assay type: binding, mouse; conditions: 4A mutation introduced into the construct; HEK293T cells, Figure 3A
Excerpt: BioGFP-tagged KANK1 mutants were constructed using PCR and pBioGFP-C1 vector as previously described ([van der Vaart et al., 2013]). Rescue constructs for BioGFP-tagged KANK1 were either based on the version previously described ([van der Vaart et al., 2013]) or a version obtained by PCR-based mutagenesis of the sequence […] to […]. mCherry-tagged paxillin construct was made by replacing GFP from pQC-GPXN ([Bouchet et al., 2011]) by mCherry (pmCherry-C1, Clontech). TagRFP-tagged paxillin construct was made by PCR-based amplification and cloning in pTagRFP-T-C1 (kind gift from Y. Mimori-Kiyosue, Riken Institute, Japan). HA-tagged KANK1 construct was generated by cloning KANK1 coding sequence into pMT2-SM-HA (gift of C. Hoogenraad, Utrecht University, The Netherlands). pLVX-IRES-Neo (pLVIN) vectors was constructed by cloning the IRES-neomycin resistance cassette from the pQCXIN plasmid (Clontech) into the pLVX-IRES-Puro plasmid (Clontech). […]
Streptavidin-based pull down assays of biotinylated proteins expressed using pBioGFP-C1 constructs transfected in HEK293T cells was performed and analyzed as previously described ([van der Vaart et al., 2013]). […] For RP-nanoLC-MS/MS, samples were resuspended in 10% formic acid (FA) / 5% DMSO and was analyzed using a Proxeon Easy-nLC100 (Thermo Scientific) connected to an Orbitrap Q-Exactive mass spectrometer. […]

## KN domain: GFP-tagged KN domain of KANK1 (residues 30–68)
[1]
  localization relative to FAs, endogenous KANK1/2 present (in words): strongly and specifically accumulated within FAs
GFP-talin1
  effect of 4A mutation on interaction with talin1 (in words): An even stronger reduction was observed
